# Key:
# [1] = system: sciatic nerve axonal mitochondria; test: In vivo imaging of axonal mitochondrial transport in sciatic nerve; design: species or system mouse
# Protocol: Together, these experiments indicate that HDAC6 activity impacts axonal mitochondrial transport in vitro and in vivo.
# Sciatic nerves were exposed in live, isofluorane-anaesthetized animals (female C57BL6/J mice aged 41-42 d after birth) as previously reported (Gibbs et al., 2016; Sleigh and Schiavo, 2016). Briefly, 10-μ1 glass micropipettes (Drummond Scientific; 5-000-1001-X10) were pulled (Mohan et al., 2015) and used to inject 2 μl of 1.5 mM TubA or DMSO (Sigma-Aldrich; D2650) vehicle control in sterile saline (0.9% wt/vol) into the proximal aspect of the exposed sciatic nerve. 2 μM tetramethylrhodamine, ethyl ester, perchlorate (Thermo Fisher Scientific; T669), and 0.1% (wt/vol) bromophenol blue (Sigma-Aldrich; B5525) were included in the injected solution to label mitochondria and confirm successful injection beneath the perineurium, respectively.
# Body temperature was maintained using a heat pad during surgery and drug incubation. Sciatic nerves were imaged from 20 to 90 min after injection using an inverted LSM 780 laser scanning microscope (Zeiss) Plan-Apochromat 63×/1.4 NA Oil DIC M27 objective within an environmental chamber prewarmed and set to 37° C. An area containing labeled axons was selected and imaged for 444-1,000 s at 100×digital zoom every ˜4 s (1,024×1,024 pixels, 0.5-μs pixel dwell time, 1% laser power). Four animals were imaged per day (two per treatment). Image series were converted into AVI files, and mitochondrial dynamics were assessed using Kinetic Imaging Software. Mitochondria were included in analyses when they could be tracked for at least five consecutive frames. At least 10 mitochondria (mean of 49.1) across at least three axons (mean of 4.38) per animal were tracked, and all analyses were performed blinded to treatment.
# [2] = system: distal axons and growth cones of DRG neurons; test: CALI of Mito-KR to ablate mitochondria in distal axons of DRG cultures; assay type: cell-based, rat
# Text: For this, we turned to chromophore-assisted light inactivation (CALI) to ablate mitochondria from distal axons of DRG cultures expressing mitochondrial-targeted Killer Red (Mito-KR) protein. CALI of KR protein generates reactive oxygen species (ROS) to ˜1,000-fold higher than the fluorescent emission eGFP generates (Sano et al., 2014). Increased ROS production upon CALI of Mito-KR protein leads to mitochondrial damage and ablation of mitochondrial function, including the axonal mitochondria targeted in our experiments (Shibuya and Tsujimoto, 2012; Spillane et al., 2013).
# For mitochondrial ablation by CALI, DRG cultures expressing Mito-KR and BFP for 48 h were imaged with the same confocal microscope. Mito-KR was activated with an argon laser at 514 nm continuously for 30 s until there was no detectable signal (100% laser power). After activation, 50 μm of the distal axon shaft and the growth cone were imaged every 30 s over 16 min using 585- and 405-nm laser lines (13 and 15.3% power, respectively).
# Vesicle trafficking was quantified using differential ImageJ Difference Tracker Plug-in (Andrews et al., 2010). 50-80-μm long unbranched axon segments at approximately the mid-region between growth cone and cell body were analyzed. Kymographs were generated using ImageJ Kymograph Plug-in. […] The distance between the growth tip at end of the post-CALI sequence and the pre-CALI baseline was measured using LAS-X software. Movement of ≥0.5 μm toward the axon shaft was counted as retracted. Fluorescence emission of the Mito-KR post-CALI was analyzed using ImageJ. For normalizing intensities across FRAP image sets, fluorescence intensity at each time point was scaled using the LAS-X FRAP module so that the residual fluorescence signal at t=0 min (post-bleach) was set at 0 and the prebleach intensity was set at 100% for each bleached ROI. For axon shaft FRAP analyses, each 50-μm bleached ROI was divided into […], and the fluorescence intensity recovery was measured as described above. […] A minimum of 75 unmyelinated axons was analyzed for each nerve. […]
# [3] = laminin, TubA 10 μM 1 h or siRNA cotransfection, vs vehicle/siControl
structure (smiles),measurement,setting,value
"CN1CCc2c(c3ccccc3n2Cc2ccc(C(=O)NO)cc2)C1 [TubA, tubastatin]",pausing of moving mitochondria,"[1]; retrogradely versus anterogradely moving, after TubA",significantly increased pausing for retrogradely versus anterogradely moving mitochondria
same,ratio of anterogradely to retrogradely moving axonal mitochondria,"[1]; sciatic nerve injection, 2 μl of 1.5 mM, in vivo imaging",increased
same,significance of antero/retrograde ratio and speed of movement vs vehicle control,"[1]; sciatic nerve injection, in vivo imaging",neither this nor the speed of movement showed significant differences
same,effect on MAG-Fc-dependent decrease in Mito-KR recovery after CALI,[2]; MAG-Fc + 10 μM TubA,reversed
same,growth cone retraction after CALI mitochondrial ablation,[2]; [3],majority of the TubA-treated cultures showed no growth cone retraction
same,recovery of Mito-KR fluorescence in ROI after CALI,[2]; [3],significant recovery of mitochondrial fluorescence

# — patent US20210330756A1, “Acetylation of Miro1” (University of South Carolina, priority 2020, published 2021)
